Reference: ChEMBL document CHEMBL5465560, “Selectivity Literature for EUbOPEN Chemogenomic Library” (2024)
One block for each molecule: values may come before it.

Tests used:
[1] = biological target: RAC-alpha serine/threonine-protein kinase (Homo sapiens, UniProt P31749); assay: Selectivity interaction (Rxn Biology Kinase assay) EUB0001632a AKT1; details: at 10 µM
[2] = biological target: T1, Ephrin type-A receptor 8 (Homo sapiens) (UniProt P29322); assay: Selectivity interaction (Kinase panel (Z-LYTE Assay)) EUB0001632a EPHA8; details: at 10 µM
T1 sequence (whole entry): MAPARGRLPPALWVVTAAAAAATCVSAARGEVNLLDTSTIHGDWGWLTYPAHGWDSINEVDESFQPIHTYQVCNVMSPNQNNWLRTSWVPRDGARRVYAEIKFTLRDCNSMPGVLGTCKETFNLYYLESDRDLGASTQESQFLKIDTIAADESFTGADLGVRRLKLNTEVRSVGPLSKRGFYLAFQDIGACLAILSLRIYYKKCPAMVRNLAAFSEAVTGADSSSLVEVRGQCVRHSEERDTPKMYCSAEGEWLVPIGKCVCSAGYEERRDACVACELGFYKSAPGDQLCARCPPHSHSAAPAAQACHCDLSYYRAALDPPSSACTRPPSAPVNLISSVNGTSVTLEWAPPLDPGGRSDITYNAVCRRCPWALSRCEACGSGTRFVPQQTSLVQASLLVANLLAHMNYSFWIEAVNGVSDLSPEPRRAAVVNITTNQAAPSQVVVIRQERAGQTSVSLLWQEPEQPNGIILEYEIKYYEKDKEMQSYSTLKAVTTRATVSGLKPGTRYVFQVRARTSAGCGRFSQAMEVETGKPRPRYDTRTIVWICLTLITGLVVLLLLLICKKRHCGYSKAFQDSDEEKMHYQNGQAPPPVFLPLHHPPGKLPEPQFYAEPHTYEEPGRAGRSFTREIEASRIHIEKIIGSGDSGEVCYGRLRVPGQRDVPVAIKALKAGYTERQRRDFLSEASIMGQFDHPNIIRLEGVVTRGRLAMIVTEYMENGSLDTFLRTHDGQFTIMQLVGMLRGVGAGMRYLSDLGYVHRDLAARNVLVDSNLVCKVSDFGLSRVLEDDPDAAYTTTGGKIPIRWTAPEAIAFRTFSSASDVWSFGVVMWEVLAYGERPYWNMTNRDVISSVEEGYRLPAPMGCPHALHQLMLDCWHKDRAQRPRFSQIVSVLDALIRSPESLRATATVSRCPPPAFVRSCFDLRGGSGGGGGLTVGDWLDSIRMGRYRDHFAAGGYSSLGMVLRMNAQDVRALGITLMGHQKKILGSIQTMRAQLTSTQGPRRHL

[3] = biological target: T2, Serine/threonine-protein kinase TAO1 (Homo sapiens) (UniProt Q7L7X3); assay: Selectivity interaction (LanthaScreen Eu Kinase Binding Assay) EUB0001632a TAOK1; details: at 10 µM
T2 sequence (whole entry): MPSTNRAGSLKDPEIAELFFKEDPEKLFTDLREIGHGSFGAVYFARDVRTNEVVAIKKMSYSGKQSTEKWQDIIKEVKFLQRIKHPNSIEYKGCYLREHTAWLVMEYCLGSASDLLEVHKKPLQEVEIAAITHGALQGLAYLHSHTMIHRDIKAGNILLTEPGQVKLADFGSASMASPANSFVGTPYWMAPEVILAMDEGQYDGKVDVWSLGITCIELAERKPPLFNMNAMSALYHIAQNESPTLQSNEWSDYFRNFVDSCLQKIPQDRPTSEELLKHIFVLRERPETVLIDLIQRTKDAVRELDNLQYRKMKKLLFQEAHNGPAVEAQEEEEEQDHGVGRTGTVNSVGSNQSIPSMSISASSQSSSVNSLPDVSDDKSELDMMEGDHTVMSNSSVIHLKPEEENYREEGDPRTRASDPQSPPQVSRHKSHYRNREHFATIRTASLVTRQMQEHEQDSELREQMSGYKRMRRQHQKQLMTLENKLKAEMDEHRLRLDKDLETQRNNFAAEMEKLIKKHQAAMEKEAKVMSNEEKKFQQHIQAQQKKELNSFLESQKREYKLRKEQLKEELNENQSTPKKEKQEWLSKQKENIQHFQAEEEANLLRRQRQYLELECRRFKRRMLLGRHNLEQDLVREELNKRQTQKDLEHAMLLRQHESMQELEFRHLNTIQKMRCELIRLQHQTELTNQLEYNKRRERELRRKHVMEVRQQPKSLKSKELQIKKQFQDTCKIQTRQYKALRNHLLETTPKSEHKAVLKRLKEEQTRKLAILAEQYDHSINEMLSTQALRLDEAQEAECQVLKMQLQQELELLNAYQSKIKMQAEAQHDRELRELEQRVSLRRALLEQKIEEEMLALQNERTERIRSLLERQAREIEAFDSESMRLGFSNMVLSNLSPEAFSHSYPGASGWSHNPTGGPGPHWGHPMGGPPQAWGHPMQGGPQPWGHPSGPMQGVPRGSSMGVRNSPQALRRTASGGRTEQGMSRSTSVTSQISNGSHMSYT

[4] = biological target: T3, Cyclin-dependent kinase-like 2 (Homo sapiens) (UniProt Q92772); assay: Selectivity interaction (KINOMEscan (DiscoverX)) EUB0001868a CDKL2; details: at 1 µM
T3 sequence (whole entry): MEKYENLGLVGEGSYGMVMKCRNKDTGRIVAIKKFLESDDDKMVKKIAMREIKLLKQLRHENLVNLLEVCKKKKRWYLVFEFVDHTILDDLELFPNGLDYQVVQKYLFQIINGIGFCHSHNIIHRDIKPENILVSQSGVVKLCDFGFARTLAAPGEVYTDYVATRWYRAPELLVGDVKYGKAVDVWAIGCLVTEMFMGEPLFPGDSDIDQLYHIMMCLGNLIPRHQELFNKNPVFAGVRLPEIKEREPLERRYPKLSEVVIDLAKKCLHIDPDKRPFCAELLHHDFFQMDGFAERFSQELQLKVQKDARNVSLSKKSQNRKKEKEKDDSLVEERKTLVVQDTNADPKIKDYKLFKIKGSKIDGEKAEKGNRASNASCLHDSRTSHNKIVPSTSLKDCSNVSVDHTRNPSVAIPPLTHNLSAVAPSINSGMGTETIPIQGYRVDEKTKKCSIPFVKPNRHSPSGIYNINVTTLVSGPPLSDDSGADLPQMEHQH

[5] = biological target: Misshapen-like kinase 1 (Homo sapiens, UniProt Q8N4C8); assay: Selectivity interaction (Kinase panel (Invitrogen)) EUB0000639a MINK1; details: at 200 nM
Misshapen-like kinase 1, sequence (Q8N4C8 whole entry, looked up): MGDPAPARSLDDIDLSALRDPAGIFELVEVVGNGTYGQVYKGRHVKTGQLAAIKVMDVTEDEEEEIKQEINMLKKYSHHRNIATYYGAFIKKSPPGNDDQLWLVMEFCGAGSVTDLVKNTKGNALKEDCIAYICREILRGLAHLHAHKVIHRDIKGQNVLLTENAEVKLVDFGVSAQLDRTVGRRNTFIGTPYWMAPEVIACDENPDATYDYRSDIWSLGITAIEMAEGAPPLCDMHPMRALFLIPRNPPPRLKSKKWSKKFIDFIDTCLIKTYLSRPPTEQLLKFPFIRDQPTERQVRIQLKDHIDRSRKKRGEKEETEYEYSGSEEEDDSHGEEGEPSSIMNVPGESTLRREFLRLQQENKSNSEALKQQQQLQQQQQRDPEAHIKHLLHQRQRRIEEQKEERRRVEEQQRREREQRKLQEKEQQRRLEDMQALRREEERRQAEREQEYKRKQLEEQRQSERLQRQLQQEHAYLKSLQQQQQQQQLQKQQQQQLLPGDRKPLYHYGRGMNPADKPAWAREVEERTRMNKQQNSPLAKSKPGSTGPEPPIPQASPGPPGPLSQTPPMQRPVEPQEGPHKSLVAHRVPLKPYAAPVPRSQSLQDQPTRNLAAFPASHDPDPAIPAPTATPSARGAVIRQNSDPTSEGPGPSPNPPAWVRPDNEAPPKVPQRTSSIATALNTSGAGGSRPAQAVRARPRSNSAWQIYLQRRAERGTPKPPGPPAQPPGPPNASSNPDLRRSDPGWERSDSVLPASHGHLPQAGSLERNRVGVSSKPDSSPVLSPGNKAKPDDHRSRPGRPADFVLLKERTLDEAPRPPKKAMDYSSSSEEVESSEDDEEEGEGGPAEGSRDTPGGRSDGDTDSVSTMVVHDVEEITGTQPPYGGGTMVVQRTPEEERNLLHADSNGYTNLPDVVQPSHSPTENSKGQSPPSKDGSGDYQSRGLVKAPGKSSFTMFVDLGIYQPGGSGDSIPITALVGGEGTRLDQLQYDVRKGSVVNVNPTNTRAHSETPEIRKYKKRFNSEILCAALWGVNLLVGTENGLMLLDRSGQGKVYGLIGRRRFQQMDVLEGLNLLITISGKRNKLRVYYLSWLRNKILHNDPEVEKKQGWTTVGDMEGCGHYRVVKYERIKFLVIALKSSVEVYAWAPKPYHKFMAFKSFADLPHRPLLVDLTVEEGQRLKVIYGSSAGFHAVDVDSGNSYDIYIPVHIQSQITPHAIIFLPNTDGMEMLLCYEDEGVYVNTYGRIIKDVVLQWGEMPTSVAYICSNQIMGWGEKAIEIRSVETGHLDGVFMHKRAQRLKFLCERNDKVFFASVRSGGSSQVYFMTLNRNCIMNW

[6] = biological target: Ribosomal protein S6 kinase alpha-3 (Homo sapiens, UniProt P51812); assay: Selectivity interaction (KinomeScan (DiscoverX)) EUB0000229b RPS6KA3; details: at 10 µM
Ribosomal protein S6 kinase alpha-3, sequence (P51812 whole entry): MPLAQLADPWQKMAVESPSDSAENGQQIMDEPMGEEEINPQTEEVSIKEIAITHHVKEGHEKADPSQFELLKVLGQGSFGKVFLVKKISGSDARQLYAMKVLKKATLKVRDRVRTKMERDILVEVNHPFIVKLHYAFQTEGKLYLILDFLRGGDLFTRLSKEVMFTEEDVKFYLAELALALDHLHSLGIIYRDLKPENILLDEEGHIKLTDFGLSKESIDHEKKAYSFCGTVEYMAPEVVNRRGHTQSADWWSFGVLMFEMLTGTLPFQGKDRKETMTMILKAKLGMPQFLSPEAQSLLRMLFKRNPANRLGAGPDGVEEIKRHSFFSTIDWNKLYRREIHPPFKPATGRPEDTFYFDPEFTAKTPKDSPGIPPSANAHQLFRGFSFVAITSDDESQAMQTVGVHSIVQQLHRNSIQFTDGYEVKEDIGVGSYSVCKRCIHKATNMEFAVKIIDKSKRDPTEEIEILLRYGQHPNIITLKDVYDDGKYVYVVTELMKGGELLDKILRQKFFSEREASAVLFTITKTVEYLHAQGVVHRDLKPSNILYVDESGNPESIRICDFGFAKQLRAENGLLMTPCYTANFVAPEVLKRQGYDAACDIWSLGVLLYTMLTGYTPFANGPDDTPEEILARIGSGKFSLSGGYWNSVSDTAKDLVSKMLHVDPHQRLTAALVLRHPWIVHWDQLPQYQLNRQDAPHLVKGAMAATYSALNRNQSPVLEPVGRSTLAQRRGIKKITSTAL

RAC-alpha serine/threonine-protein kinase, sequence (P31749 whole entry): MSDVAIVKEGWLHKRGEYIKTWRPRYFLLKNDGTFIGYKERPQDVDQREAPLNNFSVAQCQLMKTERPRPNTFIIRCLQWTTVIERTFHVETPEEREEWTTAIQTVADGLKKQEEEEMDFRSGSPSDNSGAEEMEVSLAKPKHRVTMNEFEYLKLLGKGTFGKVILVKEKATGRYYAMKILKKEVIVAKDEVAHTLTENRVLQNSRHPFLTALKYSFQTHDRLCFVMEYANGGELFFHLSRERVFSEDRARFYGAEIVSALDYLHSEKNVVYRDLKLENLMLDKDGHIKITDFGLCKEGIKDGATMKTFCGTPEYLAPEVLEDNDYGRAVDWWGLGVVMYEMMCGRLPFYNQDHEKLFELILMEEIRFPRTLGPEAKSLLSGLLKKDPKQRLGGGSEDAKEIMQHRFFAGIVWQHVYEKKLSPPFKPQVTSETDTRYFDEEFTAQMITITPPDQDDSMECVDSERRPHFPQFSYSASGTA

- % of inhibition [1]: 0.245%
- % of control [2]: -0.692%
- % of inhibition [3]: 31.8%
SMILES: Cn1cc(-n2cnc3c(NCc4nc5cc(Cl)c(Cl)cc5[nH]4)nc(N4CCOCC4)nc32)cn1

- % of control [4]: 15%
SMILES: Cc1cc(-c2ccnc(Nc3cnn(C)c3)n2)ccc1CNC(=O)N1CC(OC(C)C)C1

- % of inhibition [5]: 18.8%
SMILES: CC[C@@H]1[C@H](F)C(=O)N[C@@H]1COc1nccc2cc(C(N)=O)c(OC)cc12 [ZIMLOVISERTIB]

SMILES: COc1cc(N(C)c2ccnc3ccc(C(F)(F)F)cc23)cc(OC)c1OC
- % binding [6]: 95%
